Measurements as given in PMC9516332 (Frontiers in Oncology, 2022).

How the values were obtained:
Test in all cases: Kinase panel profiling at 1 µmol/L (MSA or IMAP), percentage inhibition
Type in all cases: biochemical
[1] = molecular target: panel of 255 wild-type kinases (Homo sapiens, UniProt Q16288); conditions: kinase TRKC; 1 µmol/L single concentration; read-out: %-inhibition at 1 µmol/L, TRKC
[2] = molecular target: T1, panel of 255 wild-type kinases (Homo sapiens, UniProt P54753); conditions: kinase EPHB3; 1 µmol/L single concentration; read-out: %-inhibition at 1 µmol/L, EPHB3
T1 sequence (P54753 34-998): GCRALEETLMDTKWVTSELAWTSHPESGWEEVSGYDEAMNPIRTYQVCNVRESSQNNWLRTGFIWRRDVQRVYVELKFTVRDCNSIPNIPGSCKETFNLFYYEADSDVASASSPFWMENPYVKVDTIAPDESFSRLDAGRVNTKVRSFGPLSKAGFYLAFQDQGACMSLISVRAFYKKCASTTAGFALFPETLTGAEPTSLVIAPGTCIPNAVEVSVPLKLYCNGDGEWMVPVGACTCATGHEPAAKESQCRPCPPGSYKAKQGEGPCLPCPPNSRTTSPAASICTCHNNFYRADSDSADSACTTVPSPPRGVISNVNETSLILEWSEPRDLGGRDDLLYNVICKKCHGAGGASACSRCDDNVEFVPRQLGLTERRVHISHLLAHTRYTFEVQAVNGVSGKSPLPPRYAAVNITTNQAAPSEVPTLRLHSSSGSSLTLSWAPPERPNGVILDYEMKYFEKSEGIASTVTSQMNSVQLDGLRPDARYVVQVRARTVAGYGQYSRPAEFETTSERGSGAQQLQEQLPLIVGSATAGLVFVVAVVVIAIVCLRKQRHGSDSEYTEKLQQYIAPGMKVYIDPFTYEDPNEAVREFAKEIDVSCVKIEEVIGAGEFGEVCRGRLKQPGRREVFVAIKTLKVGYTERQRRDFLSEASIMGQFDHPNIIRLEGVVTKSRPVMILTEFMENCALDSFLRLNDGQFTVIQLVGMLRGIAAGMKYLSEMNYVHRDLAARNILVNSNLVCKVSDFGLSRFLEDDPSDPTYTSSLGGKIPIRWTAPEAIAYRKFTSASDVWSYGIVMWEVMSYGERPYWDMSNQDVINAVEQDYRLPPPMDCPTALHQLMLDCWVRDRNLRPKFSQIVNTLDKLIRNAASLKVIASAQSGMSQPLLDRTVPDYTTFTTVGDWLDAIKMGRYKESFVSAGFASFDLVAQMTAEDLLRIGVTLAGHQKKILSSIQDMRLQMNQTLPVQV

[3] = molecular target: panel of 255 wild-type kinases (Homo sapiens, UniProt P49759); conditions: kinase CLK1; 1 µmol/L single concentration; read-out: %-inhibition at 1 µmol/L, CLK1
[4] = molecular target: T2, panel of 255 wild-type kinases (Homo sapiens, UniProt Q12851); conditions: kinase MAP4K2; 1 µmol/L single concentration; read-out: %-inhibition at 1 µmol/L, MAP4K2
T2 sequence (Q12851 1-820): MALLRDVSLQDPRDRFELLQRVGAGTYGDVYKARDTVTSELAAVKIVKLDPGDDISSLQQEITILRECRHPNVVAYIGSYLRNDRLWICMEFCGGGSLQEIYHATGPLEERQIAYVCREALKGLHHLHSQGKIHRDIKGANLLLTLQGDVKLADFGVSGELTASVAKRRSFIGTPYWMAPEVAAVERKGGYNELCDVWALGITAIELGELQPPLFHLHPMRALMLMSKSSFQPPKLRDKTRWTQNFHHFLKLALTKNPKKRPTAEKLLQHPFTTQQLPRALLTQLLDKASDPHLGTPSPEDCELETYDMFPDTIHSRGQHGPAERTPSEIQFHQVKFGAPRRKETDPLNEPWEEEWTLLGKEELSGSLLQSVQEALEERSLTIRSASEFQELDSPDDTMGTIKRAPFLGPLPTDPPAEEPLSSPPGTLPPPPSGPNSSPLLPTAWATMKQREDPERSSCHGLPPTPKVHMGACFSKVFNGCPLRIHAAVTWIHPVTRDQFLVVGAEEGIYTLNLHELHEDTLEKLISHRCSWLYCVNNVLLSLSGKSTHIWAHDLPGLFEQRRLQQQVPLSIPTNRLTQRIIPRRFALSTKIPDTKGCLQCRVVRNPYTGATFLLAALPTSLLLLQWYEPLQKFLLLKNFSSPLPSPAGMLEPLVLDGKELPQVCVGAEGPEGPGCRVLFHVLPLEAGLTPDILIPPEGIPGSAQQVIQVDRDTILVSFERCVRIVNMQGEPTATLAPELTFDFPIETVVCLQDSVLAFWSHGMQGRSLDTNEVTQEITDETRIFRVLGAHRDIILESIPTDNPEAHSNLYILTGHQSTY

[5] = molecular target: panel of 255 wild-type kinases (Homo sapiens, UniProt P28482); conditions: kinase Erk2; 1 µmol/L single concentration; read-out: %-inhibition at 1 µmol/L, Erk2
[6] = molecular target: panel of 255 wild-type kinases (Homo sapiens, UniProt P57059); conditions: kinase SIK; 1 µmol/L single concentration; read-out: %-inhibition at 1 µmol/L, SIK
[7] = molecular target: T3, panel of 255 wild-type kinases (Homo sapiens, UniProt O15264); conditions: p38δ; 1 µmol/L single concentration; read-out: %-inhibition, p38δ
T3 sequence (O15264 1-365): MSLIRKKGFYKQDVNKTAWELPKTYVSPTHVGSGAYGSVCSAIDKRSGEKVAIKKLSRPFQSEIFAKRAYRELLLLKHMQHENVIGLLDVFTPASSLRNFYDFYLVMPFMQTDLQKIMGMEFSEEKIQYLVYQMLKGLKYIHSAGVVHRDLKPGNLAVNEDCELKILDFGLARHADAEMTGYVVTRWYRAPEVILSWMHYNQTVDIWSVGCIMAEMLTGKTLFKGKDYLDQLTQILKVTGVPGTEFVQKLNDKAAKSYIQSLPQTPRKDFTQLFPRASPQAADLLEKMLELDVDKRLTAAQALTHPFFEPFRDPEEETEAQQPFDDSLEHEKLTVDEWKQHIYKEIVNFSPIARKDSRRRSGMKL

[8] = molecular target: panel of 255 wild-type kinases (Homo sapiens, UniProt Q14012); conditions: CaMK1α kinase assay; 1 µmol/L single concentration; read-out: %-inhibition CaMK1α

SMILES	inhibition at 1 µM [1]	inhibition at 1 µM [2]	inhibition at 1 µM [3]	inhibition at 1 µM [4]	inhibition at 1 µM [5]	inhibition at 1 µM [6]	inhibition at 1 µM [7]	inhibition at 1 µM [8]
COc1cc2ncnc(Nc3ccc(F)c(Cl)c3)c2cc1NC(=O)/C=C/CN1CCCCC1 [dacomitinib]	-0.0882%	2%	19%	-2.38%	-1.48%	40%	0.0743%	-7%
CCN1C(=O)N(c2c(F)c(OC)cc(OC)c2F)Cc2cnc3[nH]c(CN4CCOCC4)cc3c21 [pemigatinib]	-0.168%	-2.52%	5%	8%	-1.6%	22%	-6%	12%
CO[C@]1(C(=O)N[C@@H](C)c2ccc(-n3cc(F)cn3)nc2)CC[C@H](c2nc(C)cc(Nc3cc(C)[nH]n3)n2)CC1 [pralsetinib]	98%	-0.435%	32%	3.5%	0.23%	1.69%	0.0555%	-4.72%
C=CC(=O)N1CCC([C@@H]2CCNc3c(C(N)=O)c(-c4ccc(Oc5ccccc5)cc4)nn32)CC1 [zanubrutinib]	-3.55%	-1.32%	4.66%	-2.68%	-5%	-2%	-6.43%	-0.157%
